Results from US20090155376A1, “PROTEIN HYDROLYSATE WITH ANTIDIABETIC EFFECT” (MG PHARMA INC., priority 2004, published 2009).
Where a SMILES comes first, the peptide text is derived from it.

System: male and female ICR mice
Experiment: Safety test, oral administration to mice
Format: in vivo
Conditions: 10 g/kg (maximum allowable dose) or greater
Text: The peptide having the amino acid sequence Val-Val-Tyr-Pro (SEQ. ID. No. 1) prepared in Example 2 was orally administered to male and female ICR mice in an amount of 10 g/kg (maximum allowable dose) or greater, and there were no fatalities, thereby establishing the safety of the peptide.

CC(C)[C@H](N)C(=O)N[C@H](C(=O)N[C@@H](Cc1ccc(O)cc1)C(=O)N1CCC[C@H]1C(=O)O)C(C)C [Peptide (VVYP), Val-Val-Tyr-Pro] (H-VVYP-OH)
Fatalities: no fatalities
